Measured values: ChEMBL document CHEMBL1132754, “Photosensitizers related to purpurin-18-N-alkylimides: a comparative in vivo tumoricidal ability of ester versus amide functionalities” (Bioorg Med Chem Lett, 2000)

Tests used:
[1] = system: Mus musculus; experiment: Percent tumor response in mice (implanted with RIF tumor) on day 7 at 24 hours post injection (1.0 umol/kg); format: functional
[2] = system: Mus musculus; experiment: Tumor versus muscle uptake ratio in mice (implanted with RIFtumor)by in vivo reflectance spectroscopy at 5 min, 24 hr and 48 hr post injection (5.0 umol/kg); format: functional, Muscle tissue
[3] = system: Mus musculus; experiment: The in vivo tumor uptake was determined by reflectance spectroscopy in mouse; format: functional
[4] = Partition coefficient (logP); format: physicochemical; details: octanol/water
[5] = system: Mus musculus; experiment: Photodynamic therapy response in mice (implanted with RIF tumor) on day 10 after administering the compound (0.4 umol/kg); Complete response; format: functional, organism-based
[6] = system: Mus musculus; experiment: Photodynamic therapy response in mice (implanted with RIF tumor) on day 15 after administering the compound (0.4 umol/kg); format: functional
[7] = system: Mus musculus; experiment: Percent tumor response in mice (implanted with RIF tumor) on day 30 after administering the compound (1.0 umol/kg); format: functional
[8] = system: Mus musculus; experiment: Photodynamic therapy response in mice (implanted with RIF tumor)after administering the compound (0.4 umol/kg); Decreased; format: functional, organism-based
[9] = system: Mus musculus; experiment: Photodynamic therapy response in mice (implanted with RIF tumor) on day 25 after administering the compound (0.4 umol/kg);Tumor regrowth; format: functional, organism-based
[10] = system: Mus musculus; experiment: Photodynamic therapy response in mice (implanted with RIF tumor) on day 20 after administering the compound (0.4 umol/kg); format: functional

SMILES	logP [4]	Tumor response [1]	Ratio [2]	Tumor uptake [3]	Response [5]	Response [6]	Response [7]	Response [8]	Response [9]	Response [10]
CCCCCCCOC(C)C1=C(C)c2cc3nc(c4c5[nH]c(cc6[nH]c(cc1n2)c(C)c6CC)c(C)c5C(=O)N(CCCCCC)C4=O)[C@@H](CCC(=O)NCCCCCC)[C@@H]3C (stereo partly specified)	–	50%	3.59	6.58 µM/kg	–	–	–	–	–	–
CCCCCCN1C(=O)c2c3nc(cc4nc(cc5[nH]c(cc6[nH]c2c(c6C)C1=O)c(CC)c5C)C(C(C)OCCCC)=C4C)[C@@H](C)[C@@H]3CCC(=O)OC (stereo partly specified)	9.3	100%	2.22	12.9 µM/kg	–	–	–	–	–	–
CCCCCCCCCCOC(C)C1=C(C)c2cc3nc(c4c5[nH]c(cc6[nH]c(cc1n2)c(C)c6CC)c(C)c5C(=O)N(CCCCCC)C4=O)[C@@H](CCC(=O)OC)[C@@H]3C (stereo partly specified)	–	100%	3.23	4.2 µM/kg	–	–	–	–	–	–
CCCCCCCCOC(C)C1=C(C)c2cc3nc(c4c5[nH]c(cc6[nH]c(cc1n2)c(C)c6CC)c(C)c5C(=O)N(CCCCCC)C4=O)[C@@H](CCC(=O)OC)[C@@H]3C (stereo partly specified)	11.3	10%	2.9	15.7 µM/kg	–	–	–	–	–	–

Further lines, with some results ahead:

logP [4]	SMILES	Tumor response [1]	Ratio [2]	Tumor uptake [3]	Response [5]	Response [6]	Response [7]	Response [8]	Response [9]	Response [10]
10.3	CCCCCCNC(=O)CC[C@@H]1c2nc(cc3[nH]c(cc4[nH]c(cc5nc6c2C(=O)N(CCCCCC)C(=O)C6=C5C)c(CC)c4C)c(C(C)OCCC)c3C)[C@H]1C (stereo partly specified)	67%	2.69	7 µM/kg	–	–	–	–	–	–
11.3	CCCCCCNC(=O)CC[C@@H]1c2nc(cc3[nH]c(cc4[nH]c(cc5nc6c2C(=O)N(CCCCCC)C(=O)C6=C5C)c(CC)c4C)c(C(C)OCCCCC)c3C)[C@H]1C (stereo partly specified)	20%	3.32	7.33 µM/kg	–	–	–	–	–	–
9.3	CCCCCCNC(=O)CC[C@@H]1c2nc(cc3[nH]c(cc4[nH]c(cc5nc6c2C(=O)N(CCCCCC)C(=O)C6=C5C)c(CC)c4C)c(C(C)OC)c3C)[C@H]1C (stereo partly specified)	0%	4.35	6.4 µM/kg	–	–	–	–	–	–
10.3	CCCCCCOC(C)C1=C(C)c2cc3nc(c4c5[nH]c(cc6[nH]c(cc1n2)c(C)c6CC)c(C)c5C(=O)N(CCCCCC)C4=O)[C@@H](CCC(=O)OC)[C@@H]3C (stereo partly specified)	100%	8	7.27 µM/kg	Complete response	80%	100%	Complete response	Complete response	60%
